Test results from US8900626B2, “Transdermal drug delivery system and method of using the same” (Senju USA, Inc., priority 2011, dated 2014).
Like-named read-outs stand apart in the source and are kept apart here.

Method: In vitro permeation study through hairless mouse skin to investigate the skin permeability of clobetasol propionate, amcinonide, betamethasone dipropionate, loteprednol etabonate, dexamethasone, prednisolone acetate and its metabolite (prednisolone).
Steroid patches were prepared according to the following procedure. The steroid (clobetasol propionate, amcinonide, betamethasone dipropionate, loteprednol etabonate, dexamethasone, or prednisolone acetate) was weighed in a clear polypropylene cup. 2 mL of ethyl acetate was added, and dispersed by ultrasonic wave using an ultrasonicator. DURO-TAK® 87-4098 was carefully added in the clear polypropylene cup. The components were mixed using a spatula, and then the lid of the cup was closed to avoid evaporation. A coating bar was adjusted to about 370 μm to control the thickness. The product material was carefully dispensed onto release liner near the coating bar. The coating process was started by moving the coating bar with the hand. The coated sheet was transferred to the oven and heated at 80° C. for 10±1 minutes. The dried sheet was removed from the oven, and laminated with the polyethylene terephthalate film. The thickness of the patch was checked.
The abdominal skin of 6 hairless, 8 week old, female mice were used for in vitro skin permeation experiment. (Horizontal cell, effective volume: 5 mL, effective area: 0.64 cm^2). […] The experimental temperature was controlled at 37° C., and 400 μL it of receptor solution was sampled at 1, 2, 3, 4, 5, 6, 9, 12, 22, 28, 34 and 48 hours. Thereafter, the same amount of the 40% polyethylene glycol 400 solution was added to the receptor cell. The concentration of each steroid in the sampled receptor solution was analyzed with HPLC.

[1] = female, hairless, mouse, 5 % (steroid in patch)

lag-time, times shorter than dexamethasone [1]	lag-time, times shorter than prednisolone [1]	steady-state penetration rate, times higher than that of dexamethasone [1]	steady-state penetration rate, times higher than that of prednisolone [1]	Compound	lag-time, times shorter than dexamethasone	lag-time, times shorter than prednisolone	steady-state penetration rate, times higher than that of dexamethasone	steady-state penetration rate, times higher than that of prednisolone
–	–	–	–	CCC(=O)OCC(=O)[C@@]1(OC(=O)CC)[C@@H](C)C[C@H]2[C@@H]3CCC4=CC(=O)C=C[C@]4(C)[C@@]3(F)[C@@H](O)C[C@@]21C [betamethasone, betamethasone dipropionate]	3 times	4 times	3 times	6 times
4 times	5 times	7 times	12 times	CCOC(=O)O[C@]1(C(=O)OCCl)CC[C@H]2[C@@H]3CCC4=CC(=O)C=C[C@]4(C)[C@H]3[C@@H](O)C[C@@]21C [loteprednol, loteprednol etabonate]	–	–	–	–
6 times	7 times	8 times	14 times	CCC(=O)O[C@]1(C(=O)CCl)[C@@H](C)C[C@H]2[C@@H]3CCC4=CC(=O)C=C[C@]4(C)[C@@]3(F)[C@@H](O)C[C@@]21C [clobetasol, clobetasol propionate]	–	–	–	–
4 times	5 times	10 times	20 times	CC(=O)OCC(=O)[C@@]12OC3(CCCC3)O[C@@H]1C[C@H]1[C@@H]3CCC4=CC(=O)C=C[C@]4(C)[C@@]3(F)[C@@H](O)C[C@@]12C [amcinonide]	–	–	–	–
